Test results reported in US20140378513A1, “USE OF FUNGICIDES IN LIQUID SYSTEMS” (priority 2011, published 2014).

What was measured:
[1] = test system: chytrids known to infect the strain (desmid UTEX 1237); assay: Growth of chytrid-inoculated microalgae culture with fungicide (OD 750 nm); format: cell-based
Description: Microalgae cultures are prepared as described above and further inoculated with chytrids known to infect the strain, grown, and monitored as described above. […] In contrast, contaminated cultures grown in the presence of 250 ppb or higher concentrations of fluazinam are not affected by the presence of added chytrid. Fluazinam at a concentration of 100 ppb results in a stabilization of microalgae density at 0.8 ODU which is about 4 times the density of microalgae grown in the absence of fluazinam.
(§1) Microalgae cultures are prepared as described above and further inoculated with chytrids known to infect the strain, grown and monitored as described above. […] In contrast, contaminated cultures grown in the presence of 1 ppm or higher concentrations of Headline® are not affected by the presence of added chytrid contaminant. Headline® at a concentration of 0.5 ppm results in a stabilization of microalgae density at about 0.3 ODU which is about 2 times the density of microalgae grown in the absence of Headline®.
as §1, with “2” for “1”, “Thiram®” for “Headline®”, “1.0” for “0.5”, “0.8” for “0.3”, “4” for “2”, “Thiram®.” for “Headline®.”

chytrid pest = assay: Outdoor ponds P16 and PA6 with or without fluazinam treatment
Description: Monitoring for chytrid pest and microalgae growth is performed as described in the examples above. In Pond 16 (P16), a signal for the presence of a chytrid pest is detected beginning on Day 8 using the universal primer pair to the methyltransferase gene (SEQ ID NOs: 30 and 31) and to the ITS gene (SEQ ID NOs: 32 and 33). At this point, 400 liters of P16 are inoculated into Pond A6 (PA6). Continuous detection of the presence of chytrid in pond P16 and A6, indicates a need for crop protection and 0.5 ppm of fluazinam is added on Day 11 to P16 but not PA6. Monitoring of the growth of microalgae is continued in both Pond 16 and Pond A6 using total organic carbon (TOC), OD(750), fluorescence, and a FlowCAM®.

microalgae = assay: Ranges of microalgae toxicity (serial dilution of fungicide in growing culture); conditions: range in which fungicide begins to show growth effects on microalgae
Source text: The present disclosure provides for the introduction of fungicides at an effective concentration. Effective concentrations may be determined according to manufacturer's instructions or may be determined empirically. An effective concentration of a fungicide is not toxic to the microalgae being cultured in the liquid system. Methods to determine toxicity are known in the art and include serial dilutions of a test fungicide in a growing liquid culture of microalgae. One of skill in the art would understand that different microalgae may have different ranges of toxicity that may be determined by growth of a microalga in the presence of a serial dilution of a fungicide.
Algae are screened for sensitivity to chemicals by preparing 180 ml of a log phase culture. The log phase culture is transferred into a 96 well microtiter plate at an absorbance at 750 nm (OD750 or A750) of ˜0.2. Twenty microliters of media is provided into the top row as a negative control, the middle six rows receive a 20 microliter dilution, which is a 10 fold dilution of the chemical at each transfer, of the chemical across an appropriate concentration gradient, and the bottom row receives 20 microliter of the solvent used to solubilize the pesticide alone as a control. The total volume per well is 200 μl. Each chemical is tested in triplicate. The growth of the algae is tracked daily by measuring the A750. After 8 days, the growth rate of the algae is measured by fitting the growth curve to a log model and deriving the maximum growth rate (r). The impact of the chemical is calculated by comparing the r of the algae at various dilutions of the pesticide to the control.

[2] = test system: Pest in infected Scenedesmus dimorphus culture; assay: Fungicide efficacy on pest control in infected microalgae culture; format: cell-based; conditions: for Rating: rating scale of 0 to 3 by percent efficacy
Source text: Failure to treat an infected culture results in the collapse and loss of the microalgae culture. […] Test fungicides are graded on a rating scale of 0 to 3 where a score of 0 represents an efficacy of between 0 and 25%, a score of 1 represents an efficacy of between 26 and 50%, a score of 2 represents an efficacy of between 51 and 75% and a score of 3 represents an efficacy of between 76 and 100%.

pest FD100 = assay: 200,000 liter outdoor desmid pond P08, qPCR monitoring and treatment; set-up: species or system chytrid FD100
Description: A 200,000 liter outdoor pond located in Las Cruces, N. Mex. is inoculated with a desmid strain at an initial OD (750 nm) of ˜0.15 (pond P08). Growth of the microalgae is monitored daily by measuring the ash free dry weight of the culture. PCR monitoring is performed daily to detect the presence of pests.
Initially, the Ct value for the pest is above the threshold of Ct=30 until day 15 (See, FIG. 14). The measured Ct observed for pest FD100 monitoring stays below Ct=30 and indicates a need for crop protective action. On day 18 post-inoculation, fluazinam is added at a concentration of 0.5 ppm. Daily monitoring is continued and the Ct observed for pest FD100 increases above the Ct=30 threshold and remains above the threshold through day 38.
Successful culture depends on the timely identification of a pest. On day 30, in response to a decrease in optical density of the culture, 1 ppm of pyraclostrobin is added.

[3] = test system: desmid strain (UTEX 1237); assay: Growth of uncontaminated laboratory microalgae culture with fungicide (OD 750 nm); format: cell-based; conditions: UTEX 1237, 32° C., OD 750 nm daily
Description: (§2) A desmid strain (UTEX 1237) is inoculated into 1 ml of media at an initial A750 of 0.15. […] These cultures are monitored daily for growth by measuring the optical density of the culture at 750 nm. If pests are detected, their genomic DNA is quantitated at the beginning and end of the experiment using the methods presented above. […]
as §2, with “into 1.0” for “into 1”, “media IABR6” for “media”, “initial OD (A750)” for “initial A750”
as §2, with “OD (750 nm)” for “A750”, “in these cultures” for “detected,”, “experiment.” for “experiment using the methods presented above.”

Desmid species = assay: Algae sensitivity screen, 96 well, growth rate by A750 over 8 days; format: cell-based
Description: (§3) The total volume per well is 200 μl. Each chemical is tested in triplicate.

Scenedesmus species = assay: as above; format: cell-based; conditions: 8 days
Description: as §3

Scenedesmus dimorphus = assay: as above; format: cell-based
Description: as §3

[4] = fluazinam 100 ppb, contaminated culture
[5] = Tetradesmus dimorphus, read-out: Scenedesmus dimorphus efficacy
[6] = log phase culture, 10 fold dilutions

Row | SMILES | Ranges of Microalgae toxicity (microalgae) | Rating [2] | Desmid species toxicity (Desmid species; Desmid species) | Scenedesmus species toxicity (Scenedesmus species; Scenedesmus species) | Scenedesmus dimorphus toxicity (Scenedesmus dimorphus; Scenedesmus dimorphus) | Desmid species toxicity (Desmid species; [6]) | Scenedesmus species toxicity (Scenedesmus species; [6]) | Scenedesmus dimorphus toxicity (Scenedesmus dimorphus; [6]) | also measured
1 | O=[N+]([O-])c1cc(C(F)(F)F)c(Cl)c([N+](=O)[O-])c1Nc1ncc(C(F)(F)F)cc1Cl [fluazinam, 3-chloro-N-[3-chloro-2,6-dinitro-4-(trifluoromethyl)phenyl]-5-(trifluoromethyl)-2-pyridinamine] | >7.5 ppm | 2 (a score of 2 represents an efficacy of between 51 and 75%) | – | – | – | – | – | – | concentration at which contaminated cultures are not affected by the presence of added chytrid ([1]; UTEX 1237 inoculated with chytrids): ≥ 250 ppb; density relative to microalgae grown in the absence of fungicide [1, 4]: about 4 times; stabilization of microalgae density [1, 4]: 0.8 ODU; growth of microalgae in treated pond (chytrid pest; 0.5 ppm added on Day 11 to P16, untreated PA6 collapses): Logarithmic growth continues; fraction of infected cells after treatment (chytrid pest; 0.5 ppm, pond P16, increases in untreated PA6): stabilizes or decreases; activity at 0.8 ppm [2, 5]: 67%; Ct observed for pest FD100 after treatment (pest FD100; 0.5 ppm added day 18 post-inoculation, through day 38): > 30; concentrations that do not significantly affect the growth of the uncontaminated microalgae culture [3]: up to 2 ppm
2 | COC(=O)N(OC)c1ccccc1COc1ccn(-c2ccc(Cl)cc2)n1 [pyraclostrobin, methyl N-[2-[[[1-(4-chlorophenyl)-1H-pyrazol-3-yl]oxy]methyl]phenyl]-N-methoxycarbamate] | >15 ppm | 2 (a score of 2 represents an efficacy of between 51 and 75%) | – | – | – | – | – | – | activity at 2 ppm [2, 5]: 66%; culture outcome after second fungicide (pest FD100; 1 ppm added on day 30 after decrease in optical density): the culture collapses
3 | CCCOC/C(=N\c1ccc(Cl)cc1C(F)(F)F)n1ccnc1 [triflumizole] | 1.563-6.25 ppm | 0 (a score of 0 represents an efficacy of between 0 and 25%) | 1.563-6.25 ppm | 1.563-6.25 ppm | 1.563-6.25 ppm | – | – | – | –
4 | CCCOC(=O)NCCCN(C)C [propamocarb] | 3.906-62.5 ppm | 0 (a score of 0 represents an efficacy of between 0 and 25%) | – | – | – | 3.906-15.625 ppm | 3.906-15.63 ppm | 15.63-62.5 ppm | –
5 | O=C(Nc1ccccc1)N(Cc1ccc(Cl)cc1)C1CCCC1 [pencycuron] | 0.781-12.5 ppm | 0 (a score of 0 represents an efficacy of between 0 and 25%) | – | – | – | 3.125-12.5 ppm | 0.781-3.125 ppm | 3.125-12.5 ppm | –
6 | O=C1C2CC=CCC2C(=O)N1SC(Cl)(Cl)Cl (centres unmarked) [captan] | 1.953-125 ppm | 0 (a score of 0 represents an efficacy of between 0 and 25%) | – | – | – | 31.25-125 ppm | 31.25-125 ppm | 1.953-7.813 ppm | –
7 | Cc1ccc(-c2c(Cl)nc(C#N)n2S(=O)(=O)N(C)C)cc1 [cyazofamid] | 0.03125-0.125 ppm | 0 (a score of 0 represents an efficacy of between 0 and 25%) | 0.125-0.500 ppm | 0.03125-0.125 ppm | 0.03125-0.125 ppm | – | – | – | –
8 | CCCN(CC)CC1COC2(CCC(C(C)(C)C)CC2)O1 (centres unmarked) [spiroxamine] | 0.0625-1.0 ppm | 0 (a score of 0 represents an efficacy of between 0 and 25%) | 0.250-1.0 ppm | 0.250-1.0 ppm | 0.0625-0.250 ppm | – | – | – | –
